Measurements from patent US12678446B2 (PFIZER INC., priority 2020, dated 2026).

Legend:
[1] = test system: RSV (RSV A2 ECACC, 0709161v); assay: RSV plaque reduction assay; type: cell-based, respiratory syncytial virus; conditions: human respiratory syncytial virus, HepG2, read-out: RSV A2 Plaque EC50, RSV A2 in Hep-G2 cells; mean of at least two experiments unless noted (n = 1)
Method in brief: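 Eight-point compound dilutions were premixed with RSV A2 (100 PFU/well) and applied to confluent Hep-G2 cells for 2 h, followed by a 2-day incubation at 37° C. under compound-containing 0.8% CMC overlay. EC50 comes from immunostained plaque counts relative to untreated virus wells, averaged over ≥2 runs.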

cell toxicity CC50 = type: cell-based; conditions: human; Hep-G2 cells; mean of at least two experiments; read-out: Cell Cytotoxicity CC50

Structure (SMILES) | EC50 [1] [nM] | CC50 (cell toxicity CC50) [nM]
O=C(N[C@H]1N=C(c2ccccc2)c2cccc(F)c2NC1=O)c1c(-c2ccccc2F)nn2c1OC(CN1CCCC1)CC2 (stereo partly drawn) [Example 187, N-[(3S)-9-fluoro-2-oxo-5-phenyl-1,3-dihydro-1,4-benzodiazepin-3-yl]-2-(2-fluorophenyl)-5-(pyrrolidin-1-ylmethyl)-6,7-dihydro-5H-pyrazolo[5,1-b][1,3]oxazine-3-carboxamide] | 249 | > 8840
O=C(N[C@H]1N=C(c2ccccc2)c2ccccc2NC1=O)c1c(-c2ccc(F)cc2F)nn2c1OCC(CO)C2 (stereo partly drawn) [Example 131, 2-(2,4-Difluorophenyl)-6-(hydroxymethyl)-N-[(3S)-2-oxo-5-phenyl-1,3-dihydro-1,4-benzodiazepin-3-yl]-6,7-dihydro-5H-pyrazolo[5,1-b][1,3]oxazine-3-carboxamide] | 93 | > 25000
CC(C)c1ccc(-c2nn3c(c2C(=O)N[C@H]2N=C(c4ccccc4)c4cccc(F)c4NC2=O)O[C@H](C)CC3)cn1 [Example 70, (5R)-5-Methyl-2-(6-propan-2-ylpyridin-3-yl)-N-[(3S)-9-fluoro-2-oxo-5-phenyl-1,3-dihydro-1,4-benzodiazepin-3-yl]-6,7-dihydro-5H-pyrazolo[5,1-b][1,3]oxazine-3-carboxamide] | 50 | > 25000
O=C(N[C@H]1N=C(c2ccccc2)c2cccc(F)c2NC1=O)c1c(-c2c(F)cccc2F)nn2c1OCC(CO)C2 (single isomer, unassigned) [Example 129-1, (6R*)-2-(2,6-Difluorophenyl)-N-[(3S)-9-fluoro-2-oxo-5-phenyl-1,3-dihydro-1,4-benzodiazepin-3-yl]-6-(hydroxymethyl)-6,7-dihydro-5H-pyrazolo[5,1-b][1,3]oxazine-3-carboxamide] | 39 | > 25000
C[C@@H]1CCn2nc(Nc3ccccc3)c(C(=O)N[C@H]3N=C(c4ccccc4)c4ccccc4NC3=O)c2O1 [Example 96, (5R)-2-Anilino-5-methyl-N-[(3S)-2-oxo-5-phenyl-1,3-dihydro-1,4-benzodiazepin-3-yl]-6,7-dihydro-5H-pyrazolo[5,1-b][1,3]oxazine-3-carboxamide] | 464 | > 25000
O=C(N[C@H]1N=C(c2ccccc2)c2cccc(F)c2NC1=O)c1c(-c2ccc(CN3CCOCC3)cc2F)nn2c1OCCC2 [Example 101, 2-[2-Fluoro-4-(morpholin-4-ylmethyl)phenyl]-N-[(3S)-9-fluoro-2-oxo-5-phenyl-1,3-dihydro-1,4-benzodiazepin-3-yl]-6,7-dihydro-5H-pyrazolo[5,1-b][1,3]oxazine-3-carboxamide] | 123 | > 25000
Cc1cccc(F)c1-c1nn2c(c1C(=O)N[C@H]1N=C(c3ccccc3)c3cccc(F)c3NC1=O)OCCC2 [Example 140, 2-(2-Fluoro-6-methylphenyl)-N-[(3S)-9-fluoro-2-oxo-5-phenyl-1,3-dihydro-1,4-benzodiazepin-3-yl]-6,7-dihydro-5H-pyrazolo[5,1-b][1,3]oxazine-3-carboxamide] | 38 | > 25000
C[C@H]1COc2c(C(=O)N[C@H]3N=C(c4ccccc4)c4cccc(F)c4NC3=O)c(-c3ccccc3F)nn2C1 [Example 10, (6R)-N-[(3S)-9-fluoro-2-oxo-5-phenyl-1,3-dihydro-1,4-benzodiazepin-3-yl]-2-(2-fluorophenyl)-6-methyl-6,7-dihydro-5H-pyrazolo[5,1-b][1,3]oxazine-3-carboxamide] | 23 | > 25000
O=C(N[C@H]1N=C(c2ccccc2)c2ccccc2NC1=O)c1c(-c2ccccc2F)nn2c1OCC1(COC1)C2 [Example 29] | 78 | > 25000
C[C@@H]1CCn2nc(C3CCCCC3)c(C(=O)N[C@H]3N=C(c4ccccc4)c4cccc(F)c4NC3=O)c2O1 [Example 114, (5R)-2-Cyclohexyl-N-[(3S)-9-fluoro-2-oxo-5-phenyl-1,3-dihydro-1,4-benzodiazepin-3-yl]-5-methyl-6,7-dihydro-5H-pyrazolo[5,1-b][1,3]oxazine-3-carboxamide] | 117 | 17100
C[C@@H]1CCn2nc(-c3ccc(F)nc3N3C[C@@H]4C[C@H]3CO4)c(C(=O)N[C@H]3N=C(c4ccccc4)c4cccc(F)c4NC3=O)c2O1 (single isomer, unassigned) [Example 89] | 122 | > 25000
CCc1ccc(-c2nn3c(c2C(=O)N[C@H]2N=C(c4ccccc4)c4ccccc4NC2=O)O[C@H](C)CC3)c(C)n1 [Example 65, (5R)-2-(6-Ethyl-2-methyl-3-pyridyl)-5-methyl-N-[(3S)-2-oxo-5-phenyl-1,3-dihydro-1,4-benzodiazepin-3-yl]-6,7-dihydro-5H-pyrazolo[5,1-b][1,3]oxazine-3-carboxamide] | 84 | > 25000
CC(C)Nc1ccc(-c2nn3c(c2C(=O)N[C@H]2N=C(c4ccccc4)c4cccc(F)c4NC2=O)OCC2(CC2)C3)cn1 [Example 179, 2-[6-(Propan-2-ylamino)pyridin-3-yl]-N-[(3S)-9-fluoro-2-oxo-5-phenyl-1,3-dihydro-1,4-benzodiazepin-3-yl]spiro[5,7-dihydropyrazolo[5,1-b][1,3]oxazine-6,1′-cyclopropane]-3-carboxamide] | 34 | > 25000
O=C(N[C@H]1N=C(c2ccccc2)c2cccc(F)c2NC1=O)c1c(-c2cnn(CC(F)(F)F)c2)nn2c1OCCC2 [Example 150, N-[(3S)-9-fluoro-2-oxo-5-phenyl-1,3-dihydro-1,4-benzodiazepin-3-yl]-2-[1-(2,2,2-trifluoroethyl)pyrazol-4-yl]-6,7-dihydro-5H-pyrazolo[5,1-b][1,3]oxazine-3-carboxamide] | 61 | > 25000
C[C@@H]1CCn2nc(-c3ccc(N4CCOCC4)nc3)c(C(=O)N[C@H]3N=C(c4ccccc4)c4cccc(F)c4NC3=O)c2O1 [Example 56, (5R)-N-[(3S)-9-fluoro-2-oxo-5-phenyl-1,3-dihydro-1,4-benzodiazepin-3-yl]-5-methyl-2-(6-morpholino-3-pyridyl)-6,7-dihydro-5H-pyrazolo[5,1-b][1,3]oxazine-3-carboxamide] | 123 | > 25000
C[C@@H]1CCn2nc(-c3cnn(C4CC4)c3)c(C(=O)N[C@H]3N=C(c4ccccc4)c4ccccc4NC3=O)c2O1 [Example 125, (5R)-2-(1-Cyclopropylpyrazol-4-yl)-5-methyl-N-[(3S)-2-oxo-5-phenyl-1,3-dihydro-1,4-benzodiazepin-3-yl]-6,7-dihydro-5H-pyrazolo[5,1-b][1,3]oxazine-3-carboxamide] | 70 | > 25000
C[C@H]1CCn2nc(-c3ccncc3F)c(C(=O)N[C@H]3N=C(c4ccccc4)c4cccc(F)c4NC3=O)c2O1 [Example 76, (5S)-N-[(3S)-9-fluoro-2-oxo-5-phenyl-1,3-dihydro-1,4-benzodiazepin-3-yl]-2-(3-fluoropyridin-4-yl)-5-methyl-6,7-dihydro-5H-pyrazolo[5,1-b][1,3]oxazine-3-carboxamide] | 93 | > 25000
CC(C)NCc1ccc(-c2nn3c(c2C(=O)N[C@H]2N=C(c4ccccc4)c4cccc(F)c4NC2=O)O[C@H](C)CC3)c(F)c1 [Example 183, (5R)-N-[(3S)-9-fluoro-2-oxo-5-phenyl-1,3-dihydro-1,4-benzodiazepin-3-yl]-2-[2-fluoro-4-[(propan-2-ylamino)methyl]phenyl]-5-methyl-6,7-dihydro-5H-pyrazolo[5,1-b][1,3]oxazine-3-carboxamide] | 294 | > 25000
